Test results published in US9533946B1, “N-carbamoylputrescine to enhance muscle protein synthesis” (CITRAGE, priority 2016, dated 2017).
Marks after values point to notes of the source that are not given here.

Tests used:
[1] = General effects of NCP-supplemented diet in rats (weight, behaviour, mortality, body composition); type: in vivo; conditions: for Initial weight: n = 7, before feeding period, mean ± SD; for Daily weight gain / Final weight / Weight gain: n = 7, mean ± SD
Procedure: (§1) Eight-week old Sprague-Dawley rats (Charles Rivers, Lyon, France) were used. They were placed in individual cages and acclimatized for two weeks to our animal facility. During this period they received standard rodent chow (A04, UAR, Villemoisson-sur-Orge, France) and water ad libitum.
(§2) After acclimatization twenty eight-month old rats were randomized into three groups in order to receive for two weeks a standard diet either alone (n=6; control group) or supplemented with NCP either 5 mg/kg/d (n=7, NCP5 group) or 50 mg/kg/d (n=7; NCP50 group). Their weight, behaviour and mortality were monitored throughout the feeding period.
(§3) At the end of the feeding period, the rats, in the fasted state, were anesthetized by isoflurane inhalation and euthanized by decapitation.
(§4) Mixed blood was collected onto heparinized tubes and rapidly centrifuged. The liver was immediately removed and weighed, and a sample was cut off, frozen in liquid nitrogen, and stored at −80° C. until analysis. For the jejunum and ileum, the intestine was washed with cold NaCl (0.9%) and reverted. Thereafter the intestinal mucosa was scraped, rapidly frozen in liquid nitrogen, and stored at −80° C. until analysis. Two muscles of the hindlimb, tibialis (rich in type II fibres) and soleus (rich in type I fibres), and the right kidney were rapidly removed, weighed, frozen in liquid nitrogen, and stored at −80° C. until analysis. Body composition was assessed by dissection and lean mass (carcass), visceral fat mass, sub-cutaneous fat mass (subcutaneous fat and skin) and mass of the viscera were determined.

[2] = Plasma biological parameters after NCP-supplemented diet in rats; type: in vivo
Procedure: as §1, §2, §3, §4
(§5) Biological parameters studied were: • in tissues: NCP, protein and amino acid contents • in plasma: amino acids, liver function tests (plasma aspartate aminotransferase, alanine aminotransferase, alkaline phosphatase, and bilirubin), muscle enzymes (plasma creatine kinase, and lactate dehydrogenase), plasma electrolytes (sodium, potassium, chloride, bicarbonates), total protein, urea, creatinine, calcium, phosphate, magnesium, uric acid, glucose, cholesterol and triglycerides. […]

[3] = system: soleus (rich in type I fibres); assay: Soleus protein content after NCP-supplemented diet in rats; type: in vivo, Sprague-Dawley rats
Procedure: as §1, §2, §3, §4, §5

[4] = system: soleus (rich in type I fibres); assay: Soleus amino acid content after NCP-supplemented diet in rats; type: in vivo, Sprague-Dawley rats; set-up: Soleus Serine content / Soleus Asparagine content / Soleus Glutamate content / Soleus Glycine content / Soleus Citrulline content / Soleus Valine content / Soleus Isoleucine content / Soleus Leucine content / Soleus Tyrosine content / Soleus Phenylalanine content / Soleus Ornithine content / Soleus Histidine content / Soleus Lysine content / Soleus Arginine content / Soleus Proline content / Soleus Taurine content / Soleus Aspartate content / Soleus Threonine content: unit not given here
Procedure: as §1
After acclimatization twenty eight-month old rats were randomized into three groups in order to receive for two weeks a standard diet either alone (n=6; control group) or supplemented with NCP either 5 mg/kg/d (n=7, […]; […]). Their weight, behaviour and mortality were monitored throughout the feeding period.
as §3, §4
Biological parameters studied were: • in tissues: NCP, protein and amino acid contents • in plasma: amino acids, liver function tests (plasma aspartate aminotransferase, alanine aminotransferase, alkaline phosphatase, and bilirubin), muscle enzymes (plasma creatine kinase, and lactate dehydrogenase), plasma electrolytes (sodium, potassium, chloride, bicarbonates), total protein, urea, creatinine, calcium, phosphate, magnesium, uric acid, glucose, cholesterol and triglycerides. Results General Effects of N-carbamoyl Putrescine

[5] = system: liver, kidney, tibialis, and jejunal and ileal mucosa; assay: Protein contents of other tissues after NCP-supplemented diet in rats; type: in vivo, Sprague-Dawley rats; conditions: between the three groups
Procedure: as §1, §2, §3
as §4, with “Two muscles of the hindlimb, tibialis (rich in type II fibres) and soleus (rich in type I fibres), and the right kidney were rapidly removed, weighed, frozen in liquid nitrogen, and stored at −80° C. until analysis.” left out, “determined. […]” for “determined.”

[6] = rats, NCP 5 mg/kg/d in diet, two weeks
[7] = rats, NCP 50 mg/kg/d in diet, two weeks
[8] = rats, NCP 5 or 50 mg/kg/d in diet, two weeks

Which results are given for `NCCCCNC(N)=O` [NCP, 1-(4-aminobutyl) urea]?
side effects ([1]; mammals, after administration): no side effects were noticed; Initial weight ([1]; rats, NCP 5 mg/kg group): 264.9 ± 16 g; Daily weight gain [1, 6]: 3.44 ± 0.58 g/day; Final weight [1, 6]: 313.1 ± 18.1 g; Weight gain [1, 6]: 48.1 ± 8.1 g; Initial weight ([1]; rats, NCP 50 mg/kg group): 264.9 ± 8.2 g; Daily weight gain [1, 7]: 3.65 ± 0.62 g/day; Final weight [1, 7]: 316.1 ± 13.9 g; Weight gain [1, 7]: 51.2 ± 8.7 g; general behavior [1, 8]: No rats showed abnormal general behavior; weight gain compared to controls [1, 8]: no difference; body composition (lean mass, fat mass, mass of the viscera, liver mass) ([1]; rats, NCP 5 or 50 mg/kg/d vs control, data not shown): no difference between the groups; Plasma urea ([2]; NCP50 group vs NCP5, FIG. 1): higher; Plasma urea ([2]; the two NCP-supplemented groups compared to control rats): no difference; plasma electrolytes, hepatic and muscular enzymes, creatinine, glucose, cholesterol, triglycerides and uric acid levels ([2]; three groups (control, NCP5, NCP50), data not shown): No difference; protein level in soleus ([3]; NCP5 group (5 mg/kg/d, two weeks), control 12.7±1.8, p=0.018 vs control): 14.5±0.7 g/100 g; protein level in soleus vs control group ([3]; NCP5 vs control, p=0.018): higher; protein level in soleus ([3]; NCP50 group (50 mg/kg/d, two weeks), control 12.7±1.8): 14.0±0.8 g/100 g; Soleus Alanine content ([4]; NCP 5 mg/kg, n = 7, mean ± SD): 1735 ± 385^ab μmol/g; Soleus Arginine content ([4]; NCP 5 mg/kg, n = 7, mean ± SD): 381 ± 115; Soleus Asparagine content ([4]; NCP 5 mg/kg, n = 7, mean ± SD): 519 ± 106; Soleus Aspartate content ([4]; NCP 5 mg/kg, n = 7, mean ± SD): 4195 ± 703; Soleus Citrulline content ([4]; NCP 5 mg/kg, n = 7, mean ± SD): 351 ± 53; Soleus Glutamate content ([4]; NCP 5 mg/kg, n = 7, mean ± SD): 3753 ± 684; Soleus Glutamine content ([4]; NCP 5 mg/kg, n = 7, mean ± SD): 7605 ± 1016^ab μmol/g; Soleus Glycine content ([4]; NCP 5 mg/kg, n = 7, mean ± SD): 1932 ± 516; Soleus Histidine content ([4]; NCP 5 mg/kg, n = 7, mean ± SD): 415 ± 50^a μmol/g; Soleus Isoleucine content ([4]; NCP 5 mg/kg, n = 7, mean ± SD): 83 ± 17; Soleus Leucine content ([4]; NCP 5 mg/kg, n = 7, mean ± SD): 103 ± 23; Soleus Lysine content ([4]; NCP 5 mg/kg, n = 7, mean ± SD): 933 ± 222; Soleus Ornithine content ([4]; NCP 5 mg/kg, n = 7, mean ± SD): 75 ± 12; Soleus Phenylalanine content ([4]; NCP 5 mg/kg, n = 7, mean ± SD): 75 ± 19; Soleus Proline content ([4]; NCP 5 mg/kg, n = 7, mean ± SD): 196 ± 42; Soleus Serine content ([4]; NCP 5 mg/kg, n = 7, mean ± SD): 1933 ± 384; Soleus Taurine content ([4]; NCP 5 mg/kg, n = 7, mean ± SD): 23882 ± 2585; Soleus Threonine content ([4]; NCP 5 mg/kg, n = 7, mean ± SD): 512 ± 109; Soleus Tyrosine content ([4]; NCP 5 mg/kg, n = 7, mean ± SD): 106 ± 15; Soleus Valine content ([4]; NCP 5 mg/kg, n = 7, mean ± SD): 182 ± 22; Soleus Alanine content ([4]; NCP 50 mg/kg, n = 6, mean ± SD): 2025 ± 182^b μmol/g; Soleus Arginine content ([4]; NCP 50 mg/kg, n = 6, mean ± SD): 395 ± 62; Soleus Asparagine content ([4]; NCP 50 mg/kg, n = 6, mean ± SD): 538 ± 124; Soleus Aspartate content ([4]; NCP 50 mg/kg, n = 6, mean ± SD): 4742 ± 1443; Soleus Citrulline content ([4]; NCP 50 mg/kg, n = 6, mean ± SD): 379 ± 65; Soleus Glutamate content ([4]; NCP 50 mg/kg, n = 6, mean ± SD): 4074 ± 390; Soleus Glutamine content ([4]; NCP 50 mg/kg, n = 6, mean ± SD): 8547 ± 988^b μmol/g; Soleus Glycine content ([4]; NCP 50 mg/kg, n = 6, mean ± SD): 2145 ± 153; Soleus Histidine content ([4]; NCP 50 mg/kg, n = 6, mean ± SD): 494 ± 6; Soleus Isoleucine content ([4]; NCP 50 mg/kg, n = 6, mean ± SD): 91 ± 22; Soleus Leucine content ([4]; NCP 50 mg/kg, n = 6, mean ± SD): 113 ± 32; Soleus Lysine content ([4]; NCP 50 mg/kg, n = 6, mean ± SD): 1009 ± 168; Soleus Ornithine content ([4]; NCP 50 mg/kg, n = 6, mean ± SD): 74 ± 15; Soleus Phenylalanine content ([4]; NCP 50 mg/kg, n = 6, mean ± SD): 77 ± 11; Soleus Proline content ([4]; NCP 50 mg/kg, n = 6, mean ± SD): 199 ± 26; Soleus Serine content ([4]; NCP 50 mg/kg, n = 6, mean ± SD): 1964 ± 248; Soleus Taurine content ([4]; NCP 50 mg/kg, n = 6, mean ± SD): 25223 ± 1987; Soleus Threonine content ([4]; NCP 50 mg/kg, n = 6, mean ± SD): 571 ± 67; Soleus Tyrosine content ([4]; NCP 50 mg/kg, n = 6, mean ± SD): 126 ± 21; Soleus Valine content ([4]; NCP 50 mg/kg, n = 6, mean ± SD): 194 ± 24; concentration of Glutamine, alanine and histidine in soleus muscle ([4]; with NCP administration, positive correlation of glutamine and alanine with dose (p=0.015, p=0.013)): significantly increased; liver, kidney, tibialis, and jejunal and ileal mucosa protein contents [5]: similar
